Assay results taken from US20250327028A1, “ENGINEERED PLATELETS AS TARGETED PROTEIN DEGRADERS” (Wisconsin Alumni Research Foundation, priority 2024, published 2025).

Columns and labels:
4T1 cells = experiment: HAC-B-mediated internalization of streptavidin in 4T1 cells; assay type: cell-based, murine; conditions: 4T1 cells pretreated 5 μM 2 h, vs cells without pretreatment
Description: HAC-B-mediated internalization of streptavidin in 4T1 cells: 5×10^4 4T1 cells were seeded in a confocal dish and cultured for 24 h at 37° C. Then, the cells were treated with free HAC-B at 5 μM for 2 h. Next, the drug-containing medium was removed, and PBS was used to wash the cells twice, followed by incubating the cells in the blank medium containing streptavidin-FITC at 0.5 μM for 1 h. For cotreatment, 4T1 cells were cotreated with 5 μM HAC-B and 0.5 μM FITC-SA for 1 h. Before staining with Hoechst 33342, the cells were washed with PBS twice and fixed with 4% PFA at room temperature for 20 min. Finally, the cells were subjected to Leica SP8 Confocal WLL STED microscopy for observation.

HSP90 and BRD4 = experiment: co-Immunoprecipitation of BRD4 with anti-HSP90 antibody in 4T1 cell lysate; assay type: cell-based, murine; conditions: 4T1 cells, 10 μM, 2 h
Description: co-Immunoprecipitation assay: 2×10^6 4T1 cells were seeded in T75 cell culture flasks and cultured for 24 h. Then, the medium in the corresponding flasks was replaced with 15 mL of blank medium with DMSO or iHAC (10 μM). Following incubation for another 2 h, the cells were washed with cold PBS twice and digested with 2 mL of trypsin. As for the iDePMP treatment, 1×10^9 iDePLTs were generated as the above engineering method and suspended in 3 mL of PBS containing thrombin (0.5 U/mL), followed by incubation at 37° C. for 0.5 h. The platelet suspensions were evenly divided and subjected to a sequentially combined centrifugation at 5000 g for 5 min and at 11,000 g for 1 min, followed by further centrifugation at 2500 g for 15 min at room temperature. The combined supernatants were supplemented to 12 mL blank medium to treat 4T1 cells in the relevant flasks. After incubation for 6 h, the cells were washed with cold PBS twice and digested with 2 mL of trypsin. The cell pellets were collected through centrifugation at 1200 rpm for 3 min and washed with cold PBS. The final pellets were directly lysed on ice with RIPA buffer containing PMSF (1 mM) and the phosphatase inhibitor cocktail for 30 min. […] The total proteins in the precleared samples were quantified through the BCA assay, and 20 μL of the precleared solution samples were saved as the input samples. […]

HSP90 = HSP90 expression in cancer cells after iHAC treatment; assay type: cell-based; conditions: all the cancer cells, various concentrations
Description: Immunoblot analysis: Immunoblot analysis was used to evaluate the expression of BRD4, HSP90, HSP90a, and PD-L1 in 4T1, WT MDA-MB-231, HSP90α-KO MDA-MB-231 or PEA-10 cells after various treatments and also served as the detection method for IP or co-IP experiments. The procedures for preparing IP or co-IP samples were indicated in the relevant experimental parts.
Sample preparation for various cancer cells after free HAC treatment: Various cells, including 4T1, WT MDA-MB-231, HSP90α-KO MDA-MB-231, or PEA-10 cells, were seeded in 6-well culture plates with a density of 5×10^4 cells in each well and cultured for 24 h. Then, if HAI pretreatment was performed, the cells were incubated in the HAI-containing blank medium at different concentrations for 2 h and washed with PBS twice before the following treatments. […]
General procedures for immunoblot analysis: After a 30-min lysis, the lysates were centrifuged at 10,000 g for 10 minutes at 4° C., and the corresponding supernatants were collected, followed by quantification of the total proteins in the supernatant through the BCA assay. […] Finally, the bands were treated with electrochemiluminescence (ECL) western blot substrate, detected by the iBright™ imaging system and quantified with ImageJ software. […]

SMILES	internalization of streptavidin-FITC (4T1 cells)	BRD4 co-precipitated with anti-HSP90 antibody (HSP90 and BRD4)	HSP90 expression (HSP90)
N#CCN(C(=O)CCCC[C@@H]1SC[C@@H]2NC(=O)N[C@@H]21)S(=O)(=O)c1ccc(C(=O)NCCCn2c(Sc3cc4c(cc3I)OCO4)nc3c(N)ncnc32)cc1 [HAC-B, N-(3-(6-amino-8-((6-iodobenzo[d][1,3]dioxol-5-yl)thio)-9H-purin-9-yl)propyl)-4-(N-(cyanomethyl)-N-(5-((3aS,4S,6aR)-2-oxohexahydro-1H-thieno[3,4-d]imidazol-4-yl)pentanoyl)sulfamoyl)benzamide]	much stronger green fluorescence signals	–	–
Cc1sc2c(c1C)C(c1ccc(Cl)cc1)=N[C@@H](CC(=O)NCc1cn(CCCC(=O)N(CC#N)S(=O)(=O)c3ccc(C(=O)NCCCn4c(Sc5cc6c(cc5I)OCO6)nc5c(N)ncnc54)cc3)nn1)c1nnc(C)n1-2 [iHAC, (S)—N-(3-(6-amino-8-((6-iodobenzo[d][1,3]dioxol-5-yl)thio)-9H-purin-9-yl)propyl)-4-(N-(4-(4-((2-(4-(4-chlorophenyl)-2,3,9-trimethyl-6H-thieno[3,2-f][1,2,4]triazolo[4,3-a][1,4]diazepin-6-yl)acetamido)methyl)-1H-1,2,3-triazol-1-yl)butanoyl)-N-(cyanomethyl)sulfamoyl)benzamide]	–	could considerably enhance the interaction between BRD4 and HSP90	maintained a relatively stable HSP90 expression
